Article PMC10101059, “Rational Design of Stapled Antimicrobial Peptides to Enhance Stability and In Vivo Potency against Polymicrobial Sepsis” (Microbiology Spectrum, 2023)
Values after ≈ are worked out from the molar mass of the structure shown. Read-outs that look alike come from different tables or passages of the source. Bridge positions count the residues as written; N and C are the ends. Square brackets hold non-standard residues; d marks the D form. Peptide text beside a SMILES is read from it. R5 = C=CCCC[C@@](C)(N)C(=O)O

Legend:
[1] = test system: A. baumannii; experiment: Serial passage (induced resistance) assay; assay type: cell-based, Acinetobacter baumannii; conditions: after serial passage for 15 cycles
Experimental: The experimental procedure was performed according to the MIC protocol for A. baumannii described above. Subsequently, bacterial samples from sub-MIC wells were passaged, and the MIC was estimated again. This process was repeated for 15 cycles, and the change in MIC over […] was reported ([23]).

[2] = test system: MDR A. baumannii 2998; experiment: Checkerboard microdilution assay (FICI); assay type: cell-based, Acinetobacter baumannii; conditions: for MIC: read-out: Single drug treatment MIC; for TP4-3 and meropenem combined MIC: MIC of each agent in combination
Experimental: The FICI was measured using a standard checkerboard microdilution assay ([57]). Two-fold dilutions of antibiotics were made across the x axis, and two-fold peptide dilutions were made across the y axis. Next, bacteria were added at 5 × 10^5 CFU/well (A. baumannii), followed by incubation at 37 ± 2°C for 16 to 20 h. FIC indices were calculated according to the following equations: FICI = FIC1 + FIC2; FIC1 = (MIC12 combined)/MIC1; FIC2 = (MIC12 combined)/MIC2. The combined efficacy was estimated as follows: FICI ≤ 0.5, synergistic; 0.5 to 1, additive; 1 to 2, indifferent; ≥2, antagonistic.

[3] = test system: E. coli; experiment: microbe, parasite or virus in culture; assay type: cell-based, Escherichia coli; conditions: for MIC: read-out: Single drug treatment MIC; for TP4-3 and meropenem combined MIC: MIC of each agent in combination
[4] = test system: A. baumannii; experiment: Bacterial killing kinetics; assay type: cell-based, Acinetobacter baumannii; conditions: at respective MBC
Experimental: Mid-log-phase A. baumannii (5 × 10^5 CFU/mL) bacterial cells were treated with the test candidates at appropriate bactericidal concentrations, followed by incubation at 37°C. The treated bacterial cells were plated in MHA to determine the bacterial killing rate as a function of time ([52]).

[5] = test system: A. baumannii biofilm; experiment: Biofilm rupture assay; assay type: cell-based, Acinetobacter baumannii; conditions: even at 4× MIC
Experimental: (ii) Biofilm rupture assay. Fifty μL of A. baumannii bacterial strains suspension cultures (2 × 10^6 CFU/mL) were plated and incubated in a shaking incubator for 24 h. Then, the wells were washed with PBS and treated with 100 μL of peptide/drug at various concentrations. The plates were incubated for 24 h and then washed with PBS. The wells were treated with 100% methanol for 15 min, and the residual solution was washed followed by drying at room temperature. After the wells were dry, 100 μL of 0.02% crystal violet solution was added, followed by incubation for 30 min at room temperature. The wells were then washed with water and dried for an appropriate length of time. Once the wells were dry, 100 μL of 33% acetic acid was added to the wells and they were incubated at room temperature for 1 h. Absorbance was recorded at 595 nm ([55]).

[6] = test system: MDR A. baumannii 1033; experiment: microbe, parasite or virus in culture; assay type: cell-based, Acinetobacter baumannii
Experimental: (§1) The antimicrobial assay was performed according to a modified National Committee for Clinical Laboratory Standards (NCCLS) protocol ([41], [42]). Briefly, 5 × 10^5 CFU/mL bacterial cells were treated with various peptide concentrations and incubated at 37 ± 2°C for 16 to 20 h. The lowest concentration with clear wells was recorded as the MIC for each test molecule. The clear wells were further plated in Mueller-Hinton agar (MHA) plates, followed by incubation overnight at 37 ± 2°C. After plating, the lowest concentration at which no growth was observed was recorded as the MBC. For the serum sensitivity assay, the antimicrobial activity of the peptides was tested in medium containing 50% human serum ([43], [44]).

[7] = test system: MDR A. baumannii 2982; experiment: microbe, parasite or virus in culture; assay type: cell-based, Acinetobacter baumannii
Experimental: as §1

[8] = test system: MDR A. baumannii 2998; experiment: microbe, parasite or virus in culture; assay type: cell-based, Acinetobacter baumannii; conditions: for MBC: read-out: MBC
Experimental: as §1

[9] = test system: MDR A. baumannii 2962; experiment: microbe, parasite or virus in culture; assay type: cell-based, Acinetobacter baumannii
Experimental: as §1

[10] = test system: MDR A. baumannii 3618; experiment: microbe, parasite or virus in culture; assay type: cell-based, Acinetobacter baumannii
Experimental: as §1

[11] = test system: MDR A. baumannii 1019; experiment: microbe, parasite or virus in culture; assay type: cell-based, Acinetobacter baumannii
Experimental: as §1

[12] = test system: MDR A. baumannii 2997; experiment: microbe, parasite or virus in culture; assay type: cell-based, Acinetobacter baumannii
Experimental: as §1

[13] = test system: MDR A. baumannii 2088; experiment: microbe, parasite or virus in culture; assay type: cell-based, Acinetobacter baumannii; conditions: for MBC: read-out: MBC; for MIC: read-out: MIC
Experimental: as §1

[14] = test system: MDR A. baumannii 921; experiment: microbe, parasite or virus in culture; assay type: cell-based, Acinetobacter baumannii
Experimental: as §1

[15] = test system: MDR A. baumannii 1607; experiment: microbe, parasite or virus in culture; assay type: cell-based, Acinetobacter baumannii; conditions: for MBC: read-out: MBC
Experimental: as §1

[16] = test system: MDR A. baumannii 14B0091; experiment: microbe, parasite or virus in culture; assay type: cell-based, Acinetobacter baumannii
Experimental: as §1

[17] = test system: MDR A. baumannii 1702; experiment: microbe, parasite or virus in culture; assay type: cell-based, Acinetobacter baumannii
Experimental: as §1

[18] = test system: Enterobacter aerogenes; experiment: microbe, parasite or virus in culture; assay type: cell-based
Experimental: as §1

[19] = test system: Escherichia coli; experiment: microbe, parasite or virus in culture; assay type: cell-based
Experimental: as §1

[20] = test system: Pseudomonas aeruginosa; experiment: microbe, parasite or virus in culture; assay type: cell-based; conditions: for MBC: read-out: MBC; for MIC: read-out: MIC
Experimental: as §1

[21] = test system: NDM-1 Klebsiella pneumoniae; experiment: microbe, parasite or virus in culture; assay type: cell-based
Experimental: as §1

[22] = Acinetobacter baumannii, MHB medium, read-out: MBC
[23] = Acinetobacter baumannii, MHB medium, read-out: MIC
[24] = HS, MH medium containing 50% human serum, read-out: MBC
[25] = HS, MH medium containing 50% human serum, read-out: MIC
[26] = Acinetobacter baumannii, MHB medium
[27] = HS, MH medium containing 50% human serum
[28] = Klebsiella aerogenes, MHB medium
[29] = Escherichia coli, HS, 50% human serum containing MHB medium
[30] = Pseudomonas aeruginosa, MHB medium
[31] = HS, 50% human serum containing MHB medium
[32] = Klebsiella pneumoniae, MHB medium

C[C@@H](O)[C@H]1C(=O)N2C(C(=O)O)=C(S[C@@H]3CN[C@H](C(=O)N(C)C)C3)[C@H](C)[C@H]12 [Meropenem]
net increase in the MIC [1]: 53 fold
MIC ([2]; Acinetobacter baumannii): 400 µM
TP4-3 and meropenem combined MIC ([2]; TP4-3 and M): 50 µM
MIC ([3]; Escherichia coli): 3.13 µM (≈ 1.2 µg/mL)
TP4-3 and meropenem combined MIC ([3]; TP4-3 and M): 0.097 µM
reduction of the bacterial population ([4]; within 8 h): approximately half
mature biofilm rupture [5]: minor potential for causing biofilm rupture
MBC [6, 22]: > 25 µM
MIC [6, 23]: > 25 µM
MBC [6, 24]: >25 µM
MIC [6, 25]: >25 µM
MBC [7, 26]: > 25 µM
MIC [7, 26]: > 25 µM
MBC [7, 27]: >25 µM
MIC [7, 27]: >25 µM
MIC [8, 26]: > 25 µM
MBC [8, 26]: > 25 µM
MIC [8, 27]: >25 µM
MBC [8, 27]: >25 µM
MBC [9, 26]: > 25 µM
MIC [9, 26]: > 25 µM
MBC [9, 27]: >25 µM
MIC [9, 27]: >25 µM
MBC [10, 26]: > 25 µM
MIC [10, 26]: > 25 µM
MBC [10, 27]: >25 µM
MIC [10, 27]: >25 µM
MBC [11, 26]: > 25 µM
MIC [11, 26]: > 25 µM
MBC [11, 27]: >25 µM
MIC [11, 27]: >25 µM
MBC [12, 22]: > 25 µM
MIC [12, 23]: > 25 µM
MBC [12, 24]: >25 µM
MIC [12, 25]: >25 µM
MBC [13, 26]: > 25 µM
MIC [13, 26]: > 25 µM
MBC [13, 27]: >25 µM
MIC [13, 27]: >25 µM
MBC [14, 26]: > 25 µM
MIC [14, 26]: > 25 µM
MBC [14, 27]: >25 µM
MIC [14, 27]: >25 µM
MIC [15, 26]: > 25 µM
MBC [15, 26]: > 25 µM
MIC [15, 27]: >25 µM
MBC [15, 27]: >25 µM
MBC [16, 26]: > 25 µM
MIC [16, 26]: > 25 µM
MBC [16, 27]: >25 µM
MIC [16, 27]: >25 µM
MBC [17, 22]: > 25 µM
MIC [17, 23]: > 25 µM
MBC [17, 24]: >25 µM
MIC [17, 25]: >25 µM
MBC [18, 28]: 0.39 µM (≈ 0.15 µg/mL)
MIC [18, 28]: 0.39 µM (≈ 0.15 µg/mL)
MBC [19, 29]: 0.78 µM (≈ 0.299 µg/mL)
MIC [19, 29]: 0.78 µM (≈ 0.299 µg/mL)
MBC ([19]; Escherichia coli, MHB medium): 0.39 µM (≈ 0.15 µg/mL)
MIC ([19]; Escherichia coli, MHB medium): 0.39 µM (≈ 0.15 µg/mL)
MBC ([20]; Pseudomonas aeruginosa, HS, 50% human serum containing MHB medium): 3.13 µM (≈ 1.2 µg/mL)
MBC [20, 30]: 6.25 µM (≈ 2.4 µg/mL)
MIC [20, 30]: 3.13 µM (≈ 1.2 µg/mL)
MIC [20]: 1.56 µM (≈ 0.598 µg/mL)
MBC [21, 31]: >25 µM
MIC [21, 31]: >25 µM
MBC [21, 32]: > 25 µM
MIC [21, 32]: > 25 µM

CC[C@H](C)[C@H](NC(=O)[C@@H](NC(=O)[C@@H](N)Cc1ccccc1)[C@@H](C)CC)C(=O)N[C@]1(C)CCCC=CCCC[C@](C)(C(=O)NCC(=O)N[C@@H](CC(C)C)C(=O)N[C@@H](Cc2ccccc2)C(=O)N[C@@H](CCCCN)C(=O)N[C@@H](CCCCN)C(=O)N[C@@H](CCCCN)C(=O)N[C@@H](C)C(=O)NCC(=O)N[C@@H](C)C(=O)N[C@]2(C)CCCC=CCCC[C@](C)(C(=O)N[C@H](C(=O)N[C@@H](CCCCN)C(=O)N[C@@H](CCCCN)C(=O)O)[C@@H](C)CC)NC(=O)[C@H](CCCCN)NC(=O)[C@H](CCCCN)NC(=O)[C@H](CCCCN)NC2=O)NC(=O)[C@H](CO)NC(=O)[C@H](CCCCN)NC(=O)[C@H](CCCCN)NC1=O [TP4-3] (H-FII[R5]KKS[R5]GLFKKKAGA[R5]KKK[R5]IKK-OH; staple 4-8, 18-22; N-terminus and C-terminus assumed)
net increase in the MIC [1]: 5 fold
TP4-3 and meropenem combined MIC ([2]; TP4-3 and D): 3.13 µM
TP4-3 and meropenem combined MIC ([2]; TP4-3 and M): 3.13 µM
MIC [2]: 6.25 µM
TP4-3 and meropenem combined MIC ([3]; TP4-3 and D): 6.25 µM
TP4-3 and meropenem combined MIC ([3]; TP4-3 and M): 0.78 µM
MIC [3]: 25 µM (≈ 72.3 µg/mL)
time to clear the entire bacterial load [4]: ≤ 8 h
mature biofilm rupture [5]: minor potential for causing biofilm rupture
MBC ([6]; MDR 1033): 6.25 to 12.5 µM
MIC ([6]; MDR 1033): 6.25 to 12.5 µM
MBC ([7]; MDR 2982): 6.25 µM (≈ 18.1 µg/mL)
MIC ([7]; MDR 2982): 6.25 µM (≈ 18.1 µg/mL)
MBC ([8]; MDR 2998): 12.5 µM (≈ 36.1 µg/mL)
MBC ([9]; MDR 2962): 12.5 µM (≈ 36.1 µg/mL)
MIC ([9]; MDR 2962): 6.25 µM (≈ 18.1 µg/mL)
MBC ([10]; MDR 3618): 12.5 µM (≈ 36.1 µg/mL)
MBC ([11]; MDR 1019): 12.5 µM (≈ 36.1 µg/mL)
MIC ([11]; MDR 1019): 12.5 µM (≈ 36.1 µg/mL)
MBC ([12]; MDR 2997): 3.13 to 6.25 µM
MIC ([12]; MDR 2997): 3.13 to 6.25 µM
MBC ([13]; MDR 2088): 6.25 µM (≈ 18.1 µg/mL)
MBC ([14]; MDR 921): 6.25 µM (≈ 18.1 µg/mL)
MIC ([14]; MDR 921): 6.25 µM (≈ 18.1 µg/mL)
MIC ([15]; MDR 1607): 6.25 µM (≈ 18.1 µg/mL)
MBC ([15]; MDR 1607): 12.5 µM (≈ 36.1 µg/mL)
MBC ([16]; MDR 14B0091): 3.13 µM (≈ 9.05 µg/mL)
MIC ([16]; MDR 14B0091): 3.13 µM (≈ 9.05 µg/mL)
MBC ([17]; MDR 1702): 3.13 to 6.25 µM
MIC ([17]; MDR 1702): 3.13 to 6.25 µM
MBC [18]: 25 µM (≈ 72.3 µg/mL)
MIC [18]: 25 µM (≈ 72.3 µg/mL)
MBC [19]: 25 µM (≈ 72.3 µg/mL)
MIC [19]: 25 µM (≈ 72.3 µg/mL)
MBC [20]: 25 µM (≈ 72.3 µg/mL)
MIC [20]: 25 µM (≈ 72.3 µg/mL)
MBC ([21]; NDM-1): 25 µM (≈ 72.3 µg/mL)
MIC ([21]; NDM-1): 25 µM (≈ 72.3 µg/mL)
